Reference: patent US7964641B2, “Treatment of neurodegenerative conditions” (BTG International Limited, priority 2003, dated 2011)
Several values for one entry are separate records, joined by “and”; a condition that tells them apart may be missing. Equal entries are not always repeated. Entries after “also recorded” stand apart in the source; their conditions may differ. Marks after values point to notes of the source that are not given here.

How the values were obtained:
[1] = tested on: CREAE; test: CREAE studies of structured lipids (SCH in SJL mice, MOG in C57BL mice); type: in vivo, C57B1/6 and SJL mice; settings: for Severity of CREAE (in words): oral, Studies 2 to 7, 25-350 ul; for Efficacy at low dose (FIG. 20): low dose (50 ul, Study 6); for Shape of dose response: some of the studies
[2] = tested on: MOG-induced CREAE in SJL Mice; test: MOG-induced CREAE in SJL mice, forms of GLA (Table 3); type: in vivo; settings: for Mean Clinical Score / No. with EAE: 100 μl of test lipid
[3] = tested on: brain and spinal cord lesions of EAE; settings: GGG treated mice with histological scores 2 and 3
Source text: Animals were culled on PSD 25. […] Variation in the severity of changes between individual mice is summarised using a semi-quantitative five point grading system.

[4] = tested on: EAE; settings: guinea pig, in vivo; cited from earlier work
[5] = tested on: EAE; settings: depending on dose; cited from earlier work

CCCCC/C=C\C/C=C\C/C=C\C/C=C\CCCC(=O)OCC(COC(=O)CCC/C=C\C/C=C\C/C=C\C/C=C\CCCCC)OC(=O)CCC/C=C\C/C=C\C/C=C\C/C=C\CCCCC [A-A-A, Glycerol trieicosotetra5-Z,8-Z,11-Z,14Z-eneoate]
Severity of CREAE (in words) [1]: capable of reducing severity of CREAE

CCCCC/C=C\C/C=C\C/C=C\C/C=C\CCCC(=O)OC(COC(=O)CCCCCCCCC)COC(=O)CCCCCCCCC [C-A-C, Glycerol 1,3-didecanoate 2-eicosatetra-(5-Z,8-Z,11-Z,14-Z)enoate]
Severity of CREAE (in words) [1]: capable of reducing severity of CREAE

CCCCC/C=C\C/C=C\C/C=C\CCCCCCC(=O)OC(COC(=O)CCCCCCCCC)COC(=O)CCCCCCCCC [C-DHGLA-C, Glycerol 1,3-didecanoate2-eicosa-(8Z,11Z,14Z)-trienoate]
Efficacy at low dose (FIG. 20) [1]: low dose efficacy | Severity of CREAE (in words) [1]: capable of reducing severity of CREAE

CCCCC/C=C\C/C=C\C/C=C\CCCCC(=O)OC(COC(=O)CCCCCCCCC)COC(=O)CCCCCCCCC [C-G-C, Glycerol 1,3-didecanoate 2-octadecatri(6-Z9-Z,12-Z)enoate]
Efficacy at low dose (FIG. 20) [1]: low dose efficacy | Severity of CREAE (in words) [1]: capable of reducing severity of CREAE | Shape of dose response [1]: bell shaped response curve

CCCCC/C=C\C/C=C\C/C=C\CCCCC(=O)OCC [EE-GLA]
Mean Clinical Score [2]: 3.0 ± 0.8 | No. with EAE [2]: 5/6

CCCCC/C=C\C/C=C\C/C=C\CCCCC(=O)OCC(COC(=O)CCCC/C=C\C/C=C\C/C=C\CCCCC)OC(=O)CCCCCCCCC [G-C-G, Glycerol 1,3-dioctadeca-(6Z,9Z,12Z)-trienoate 2-decanoate, reference compound]
Severity of CREAE (in words) [1]: failed to treat the condition; also recorded: lack of efficacy

CCCCC/C=C\C/C=C\C/C=C\CCCCC(=O)OCC(COC(=O)CCCC/C=C\C/C=C\C/C=C\CCCCC)OC(=O)CCCC/C=C\C/C=C\C/C=C\CCCCC [G-G-G, glycerol tri-6,9,12-linolenate]
EAE severity score of the mice with histological changes [3]: 1 and 1.5 | Severity of CREAE (in words) [1]: capable of reducing severity of CREAE | Shape of dose response [1]: bell shaped response curve

CCCCC/C=C/C/C=C/C/C=C/CCCCC(=O)OCC(COC(=O)CCCC/C=C/C/C=C/C/C=C/CCCCC)OC(=O)CCCC/C=C/C/C=C/C/C=C/CCCCC [TG-GLA]
Mean Clinical Score [2]: 1.0 ± 1.3^c | No. with EAE [2]: 3/6 | Protective effect in CREAE (in words) ([2]; compared with borage oil): protective effects similar to that of the borage oil

CCCCC/C=C\C/C=C\CCCCCCCC(=O)O [linoleic acid]
Incidence and severity of EAE [4]: partially suppresses | Protection in acute rat EAE [5]: dose-dependent action on the clinical severity but did not abolish it

CCCCC/C=C\C/C=C\C/C=C\CCCCC(=O)O [γ-linolenic acid]
Protection in acute rat EAE [5]: fully protective
